Measured values taken from patent US20220298135A1, “5-HETEROARYL-PYRIDIN-2-AMINE COMPOUNDS AS NEUROPEPTIDE FF RECEPTOR ANTAGONISTS” (Domain Therapeutics, priority 2019, published 2022).
pIC50: −log10 of the molar value.

What was measured:
[1] = biological target: T1, human NPFFR1 (hNPFFR1) receptor (Homo sapiens, UniProt Q9GZQ6); test: Human NPFFR1 evaluation using BRET biosensors (antagonist IC50); assay type: cell-based; settings: hNPFFR1 transiently over-expressed in HEK-293 T cells; BRET signal; stimulation by EC80 RFRP-3
T1 construct: expressed in transfected cells; host or cells: HEK-293 T cells, transient co-transfection with polyethylenimine
T1 sequence (Q9GZQ6 whole entry): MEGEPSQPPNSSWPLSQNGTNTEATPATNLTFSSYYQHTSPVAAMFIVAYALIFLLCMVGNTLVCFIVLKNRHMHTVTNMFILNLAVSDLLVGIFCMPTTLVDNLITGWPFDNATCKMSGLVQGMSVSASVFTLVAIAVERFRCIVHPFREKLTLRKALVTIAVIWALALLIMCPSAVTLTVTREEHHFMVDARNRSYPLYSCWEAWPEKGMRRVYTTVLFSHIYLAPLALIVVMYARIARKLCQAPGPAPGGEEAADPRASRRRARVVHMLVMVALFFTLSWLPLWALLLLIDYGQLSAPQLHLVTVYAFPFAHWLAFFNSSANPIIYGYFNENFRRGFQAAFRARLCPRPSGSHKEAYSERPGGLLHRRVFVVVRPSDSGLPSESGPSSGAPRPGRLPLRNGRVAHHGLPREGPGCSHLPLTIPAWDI
How it was run: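 HEK-293T cells co-transfected with receptor, GαoB and Gi-effector BRET biosensor pair, assayed 48 h later. Compound 10 min, then EC80 RFRP-3 with 10 min luminescence read; IC50 from 20-concentration variable-slope fit, duplicate, two independent experiments.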

| Compound | pIC50 [1] | melting point |
| --- | --- | --- |
| CCc1nc(N)ccc1-c1cccc2ccc(C(=O)N(CC)C(C)C)nc12.Cl [Example 170, 8-(6-amino-2-ethylpyridin-3-yl)-N-ethyl-N-isopropylquinoline-2-carboxamide] | > 7.00 | 121 to 125 °C |
| Cl.Nc1ccc(-c2cccc3c2oc2ccccc23)c(N)n1 [Example 40, 3-Dibenzofuran-4-ylpyridine-2,6-diamine] | > 7.00 | 135 to 143 °C |
| CCc1nc(N)ccc1-c1c(C)ccc2cccnc12.Cl [Example 93, 6-ethyl-5-(7-methylquinolin-8-yl)pyridin-2-amine] | > 7.00 | 90 to 130 °C |
| CCCc1nc(N)ccc1-c1csc2ccccc12.Cl [Example 7, 5-Benzo[b]thiophen-3-yl-6-propyl-pyridin-2-ylamine] | 6.00 to 7.00 | 175 to 190 °C |
| Cl.Nc1ccc(-c2cccc3ccncc23)c(N)n1 [Example 32, 3-Isoquinolin-8-yl-pyridine-2,6-diamine] | > 7.00 | 77 to 88 °C |
| CCc1nc(N)ccc1-c1csc2cc(OC)ccc12 [Example 5, 6-Ethyl-5-(6-methoxybenzothiophen-3-yl)pyridin-2-amine] | < 6.00 | 151 to 155 °C |
| CCc1nc(N)ccc1-c1cc(F)cc2cccnc12.Cl [Example 74, 6-ethyl-5-(6-fluoroquinolin-8-yl)pyridin-2-amine] | > 7.00 | 50 to 56 °C |
| CCc1nc(N)ccc1-c1c(F)ccc2ccc(=O)[nH]c12.Cl [Example 158, 8-(6-amino-2-ethylpyridin-3-yl)-7-fluoroquinolin-2(1H)-one] | 6.00 to 7.00 | 172 to 208 °C |
| CCc1nc(N)ccc1-c1ccccc1-c1ccc(OC)nc1 [Example 89, 6-ethyl-5-(2-(6-methoxypyridin-3-yl)phenyl)pyridin-2-amine] | 6.00 to 7.00 | 165 to 180 °C |
| CCc1nc(N)ccc1-c1cccc2ccc(=O)n(C)c12.Cl [Example 156, 8-(6-amino-2-ethylpyridin-3-yl)-1-methylquinolin-2(1H)-one] | < 6.00 | 132 to 145 °C |
| Cl.Nc1ccc(-c2cccc3[nH]ccc23)c(N)n1 [Example 24, 3-(1H-Indol-4-yl)pyridine-2,6-diamine] | 6.00 to 7.00 | 150 to 154 °C |

More lines, now with the values ahead:

| pIC50 [1] | melting point | Compound |
| --- | --- | --- |
| < 6.00 | 95 to 135 °C | CCc1nc(N)ccc1-c1cccn2ccnc12.Cl [Example 102, 6-ethyl-5-(imidazo[1,2-a]pyridin-8-yl)pyridin-2-amine] |
| 6.00 to 7.00 | > 250 °C | CCc1nc(N)ccc1-c1ccccc1-c1ccc(F)nc1.Cl [Example 87, 6-ethyl-5-(2-(6-fluoropyridin-3-yl)phenyl)pyridin-2-amine] |
| > 7.00 | 175 to 185 °C | CCc1nc(N)ccc1-c1cccc2ccc(C3CCOCC3)nc12.Cl [Example 121, 6-ethyl-5-(2-(tetrahydro-2H-pyran-4-yl)quinolin-8-yl)pyridin-2-amine] |
| > 7.00 | 178 to 182 °C | CCc1nc(N)ccc1-c1cccc2ccc(-c3cnoc3)nc12 [Example 125, 6-ethyl-5-(2-(isoxazol-4-yl)quinolin-8-yl)pyridin-2-amine] |
| > 7.00 | 100 to 117 °C | CCCc1nc(N)ccc1-c1cccc2ccncc12.Cl [Example 9, 5-(8-Isoquinolyl)-6-propyl-pyridin-2-amine] |
| 6.00 to 7.00 | 54 to 70 °C | CCc1nc(N)ccc1-c1ccc(F)cc1-c1ccc(N2CCOCC2)nc1.Cl [Example 82, 6-ethyl-5-(4-fluoro-2-(6-morpholinopyridin-3-yl)phenyl)pyridin-2-amine] |
| 6.00 to 7.00 | > 250 °C | Cl.Nc1ccc(-c2cccc3c2OCC3)c(N)n1 [Example 28, 3-(2,3-Dihydrobenzofuran-7-yl)pyridine-2,6-diamine] |
